From patent publication US9241958B2, “Anticoagulant antagonist and hemophilia procoagulant” (The Board of Trustees of the University of Illinois, priority 2007, dated 2016)

How the values were obtained:
[1] = cited from earlier work
fresh whole blood = assay: Whole blood thromboelastometry (ROTEM), clotting initiated with dilute thromboplastin; assay type: biochemical, human
Experimental: Thromboelastography was carried out using the ROTEM® four channel system (Pentapharm, Munich, Germany) using the supplied software package. Fresh, non-anticoagulated whole blood was collected via atraumatic venipuncture using a two-syringe technique. The initial 3 ml of blood was discarded and the blood sample to be used was then drawn into a 3 ml plain plastic syringe. The blood was immediately transferred to the supplied disposable plastic cups (280 μL per cup) and thoroughly mixed with 20 μL buffer (TBS: 50 mM Tris-HCl pH 7.4, 150 mM NaCl, 0.02% NaN3) or additives in TBS. Each fresh whole blood sample was divided into 4 cups containing the following: TBS only (control), polyP75, anticoagulant drug only, or both polyP75 and anticoagulant drug. Clotting was then initiated immediately via addition of 20 μL of tissue factor containing clotting reagent (INNOVIN® diluted in TBS). Thromboelastography measurement was initiated within 120 seconds of blood drawing for all samples. The final concentrations in the reaction were 87.5% whole blood, INNOVIN® diluted 1:17,000, 0 or 100 μM polyP, 0 or added anticoagulant drug (0.1 U/mL unfractionated heparin or 2.7 μg/mL enoxaparin or 1 μg/mL argatroban, or 0.2 μg/mL rivaroxaban). The measurements were continued for 2 hours and the clot time (CT), clot formation time (CFT), alpha angle (α angle), and maximum clot firmness (MCF) were recorded as supplied by the ROTEM® software. Each anticoagulant drug was added in vitro to whole blood from 5 different individuals.
(§1) Statistical analyses were performed using SigmaStat statistical software version 2.03 (SPSS, Inc). In all cases, two-tailed t-tests were conducted at the 0.05 level of significance. Clot times obtained using the Dilute PT Test with and without added polyP in plasma-based experiments were compared using unpaired t-tests. Results for each variable obtained from the ROTEM® experiments (CT, CFT, a angle, MCF) were compared separately. For each group of anticoagulants, parameters obtained for control blood samples were compared to those for blood+polyP, blood+anticoagulant, and blood+anticoagulant+polyP. The latter two samples were also directly compared. To account for inter-individual variation, thromboelstography parameters were compared using paired t-tests.

fibrinogen = molecular target: T1, fibrinogen (Homo sapiens, UniProt P02671+P02675+P02679); assay: Clot structure of thrombin cleaved fibrinogen; assay type: biochemical
T1 sequence (P02671 20-644 isoform P02671-2 limits assumed): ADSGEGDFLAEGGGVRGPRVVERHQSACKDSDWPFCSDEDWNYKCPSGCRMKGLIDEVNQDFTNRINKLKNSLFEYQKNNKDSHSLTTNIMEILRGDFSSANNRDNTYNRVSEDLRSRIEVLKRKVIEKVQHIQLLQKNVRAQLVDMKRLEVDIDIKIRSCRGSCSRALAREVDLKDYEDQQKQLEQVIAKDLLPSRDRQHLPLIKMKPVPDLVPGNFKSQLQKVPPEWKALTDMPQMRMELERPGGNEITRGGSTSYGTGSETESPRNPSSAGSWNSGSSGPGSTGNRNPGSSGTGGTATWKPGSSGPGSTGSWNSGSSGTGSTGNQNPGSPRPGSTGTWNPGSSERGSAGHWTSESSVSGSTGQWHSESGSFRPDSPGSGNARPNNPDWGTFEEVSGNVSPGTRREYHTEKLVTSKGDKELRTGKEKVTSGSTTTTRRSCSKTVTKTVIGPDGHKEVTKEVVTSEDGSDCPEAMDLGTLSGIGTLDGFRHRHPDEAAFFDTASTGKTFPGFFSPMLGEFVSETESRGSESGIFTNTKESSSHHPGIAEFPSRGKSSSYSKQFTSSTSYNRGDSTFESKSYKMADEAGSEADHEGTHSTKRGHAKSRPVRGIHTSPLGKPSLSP
T1 sequence (P02675 31-491): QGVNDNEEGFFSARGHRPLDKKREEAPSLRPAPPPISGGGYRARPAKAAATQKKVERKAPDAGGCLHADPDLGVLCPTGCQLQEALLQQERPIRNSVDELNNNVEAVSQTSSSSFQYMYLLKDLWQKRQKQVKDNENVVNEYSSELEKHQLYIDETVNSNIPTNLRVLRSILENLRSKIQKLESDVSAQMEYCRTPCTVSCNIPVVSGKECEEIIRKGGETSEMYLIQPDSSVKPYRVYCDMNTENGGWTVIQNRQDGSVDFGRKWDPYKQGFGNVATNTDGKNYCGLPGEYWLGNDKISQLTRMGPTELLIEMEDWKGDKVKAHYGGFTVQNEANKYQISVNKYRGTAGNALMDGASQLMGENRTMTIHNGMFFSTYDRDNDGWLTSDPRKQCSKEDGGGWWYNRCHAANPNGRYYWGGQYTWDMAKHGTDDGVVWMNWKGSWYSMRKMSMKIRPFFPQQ
T1 sequence (P02679 27-437 isoform P02679-2 limits assumed): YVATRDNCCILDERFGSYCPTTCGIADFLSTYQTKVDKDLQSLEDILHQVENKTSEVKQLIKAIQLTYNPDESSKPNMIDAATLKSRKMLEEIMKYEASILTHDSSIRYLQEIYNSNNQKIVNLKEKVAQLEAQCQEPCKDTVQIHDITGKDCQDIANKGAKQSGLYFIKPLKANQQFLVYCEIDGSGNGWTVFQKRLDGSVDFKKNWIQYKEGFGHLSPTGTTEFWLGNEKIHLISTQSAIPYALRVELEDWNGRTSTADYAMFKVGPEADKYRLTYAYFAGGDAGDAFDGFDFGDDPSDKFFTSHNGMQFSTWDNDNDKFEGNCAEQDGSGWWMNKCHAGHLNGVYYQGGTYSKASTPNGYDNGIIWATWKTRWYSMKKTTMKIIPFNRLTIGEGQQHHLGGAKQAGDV

[2] = system: plasma from patients with hemophilia A (FVIII<1%); assay: Dilute PT Test, plasma clot time, hemophilia A patients; assay type: biochemical, human
Experimental: (§2) The following describes the use of the Dilute PT Test to evaluate the effectiveness of polyP in treat hemophilia and reversing the effects of anticoagulant drugs. Anticoagulant drugs were added to pooled normal plasma in vitro at concentrations of up 1 U/mL for unfractionated heparin, 100 μg/mL for enoxaparin, 3 μg/mL for argatroban, and 1 μg/mL for rivaroxaban. Plasma from a patient deficient in FVIII was evaluated with and without the addition of up to 0.5 μg/mL FVIII or 20 nM FVIIa. Plasma from a patient deficient in FIX was evaluated with and without the addition of up to 4 μg/mL FIX or 20 nM FVIIa. INR values for samples from patients receiving COUMADIN® ranged from 1.7 to 4.8.
(§3) Plasma clots were formed in 96-well medium binding polystyrene microplates (Corning Inc., Corning, N.Y.). Plasma (80 μL) was added to the well and clotting was initiated by addition of 160 uL of clotting reagent. The clotting reagent consisted of RecombiPlasTin (as a source of tissue factor) diluted 200 fold (for normal and anticoagulated plasmas) or 8000 fold (for hemophilia plasmas) into buffer containing 100 μM phospholipid vesicles (20% phosphatidylserine and 80% phosphatidylcholine made by sonication), 12.5 mM CaCl2, 25 mM Tris HCl pH 7.4, 0.1% bovine serum albumin, and 150 mM NaCl. Clotting reagent was divided into reagent without added polyP and reagent with added 100 μM polyP75.
(§4) Clotting was evaluated by monitoring the change in turbidity (A405) for 1 hour at room temperature using Softmax software and a Spectramax microplate reader (Molecular Devices Corporation, Sunnyvale, Calif.). […] All assays were repeated 5 times.
as §1

[3] = system: plasma from patients with hemophilia B (FIX<1%); assay: Dilute PT Test, plasma clot time, hemophilia B patients; assay type: biochemical, human
Experimental: as §2, §3, §4, §1

thrombin = thrombin (Homo sapiens, UniProt P00734); assay: Studies with purified proteins: inactivation of thrombin by antithrombin; assay type: biochemical
pooled normal plasma = assay: Dilute PT Test, plasma clot time, anticoagulants added in vitro; assay type: biochemical, human
Experimental: as §2, §3, §4, §1

[4] = system: plasma from patients receiving COUMADIN®; assay: Dilute PT Test, plasma clot time, patients receiving COUMADIN; assay type: biochemical, human; conditions: 7 patients, INR 1.7 to 4.8; polyP75 added in vitro
Experimental: as §2
Plasma clots were formed in 96-well medium binding polystyrene microplates (Corning Inc., Corning, N.Y.). Plasma (80 μL) was added to the well and clotting was initiated by addition of 160 uL of clotting reagent. […]
Clotting was evaluated by monitoring the change in turbidity (A405) for 1 hour at room temperature using Softmax software and a Spectramax microplate reader (Molecular Devices Corporation, Sunnyvale, Calif.). […]

factor V = factor V (Homo sapiens, UniProt P12259); assay: Studies with purified proteins: activation of factor V; assay type: biochemical
Sequence of factor V (P12259 29-2224): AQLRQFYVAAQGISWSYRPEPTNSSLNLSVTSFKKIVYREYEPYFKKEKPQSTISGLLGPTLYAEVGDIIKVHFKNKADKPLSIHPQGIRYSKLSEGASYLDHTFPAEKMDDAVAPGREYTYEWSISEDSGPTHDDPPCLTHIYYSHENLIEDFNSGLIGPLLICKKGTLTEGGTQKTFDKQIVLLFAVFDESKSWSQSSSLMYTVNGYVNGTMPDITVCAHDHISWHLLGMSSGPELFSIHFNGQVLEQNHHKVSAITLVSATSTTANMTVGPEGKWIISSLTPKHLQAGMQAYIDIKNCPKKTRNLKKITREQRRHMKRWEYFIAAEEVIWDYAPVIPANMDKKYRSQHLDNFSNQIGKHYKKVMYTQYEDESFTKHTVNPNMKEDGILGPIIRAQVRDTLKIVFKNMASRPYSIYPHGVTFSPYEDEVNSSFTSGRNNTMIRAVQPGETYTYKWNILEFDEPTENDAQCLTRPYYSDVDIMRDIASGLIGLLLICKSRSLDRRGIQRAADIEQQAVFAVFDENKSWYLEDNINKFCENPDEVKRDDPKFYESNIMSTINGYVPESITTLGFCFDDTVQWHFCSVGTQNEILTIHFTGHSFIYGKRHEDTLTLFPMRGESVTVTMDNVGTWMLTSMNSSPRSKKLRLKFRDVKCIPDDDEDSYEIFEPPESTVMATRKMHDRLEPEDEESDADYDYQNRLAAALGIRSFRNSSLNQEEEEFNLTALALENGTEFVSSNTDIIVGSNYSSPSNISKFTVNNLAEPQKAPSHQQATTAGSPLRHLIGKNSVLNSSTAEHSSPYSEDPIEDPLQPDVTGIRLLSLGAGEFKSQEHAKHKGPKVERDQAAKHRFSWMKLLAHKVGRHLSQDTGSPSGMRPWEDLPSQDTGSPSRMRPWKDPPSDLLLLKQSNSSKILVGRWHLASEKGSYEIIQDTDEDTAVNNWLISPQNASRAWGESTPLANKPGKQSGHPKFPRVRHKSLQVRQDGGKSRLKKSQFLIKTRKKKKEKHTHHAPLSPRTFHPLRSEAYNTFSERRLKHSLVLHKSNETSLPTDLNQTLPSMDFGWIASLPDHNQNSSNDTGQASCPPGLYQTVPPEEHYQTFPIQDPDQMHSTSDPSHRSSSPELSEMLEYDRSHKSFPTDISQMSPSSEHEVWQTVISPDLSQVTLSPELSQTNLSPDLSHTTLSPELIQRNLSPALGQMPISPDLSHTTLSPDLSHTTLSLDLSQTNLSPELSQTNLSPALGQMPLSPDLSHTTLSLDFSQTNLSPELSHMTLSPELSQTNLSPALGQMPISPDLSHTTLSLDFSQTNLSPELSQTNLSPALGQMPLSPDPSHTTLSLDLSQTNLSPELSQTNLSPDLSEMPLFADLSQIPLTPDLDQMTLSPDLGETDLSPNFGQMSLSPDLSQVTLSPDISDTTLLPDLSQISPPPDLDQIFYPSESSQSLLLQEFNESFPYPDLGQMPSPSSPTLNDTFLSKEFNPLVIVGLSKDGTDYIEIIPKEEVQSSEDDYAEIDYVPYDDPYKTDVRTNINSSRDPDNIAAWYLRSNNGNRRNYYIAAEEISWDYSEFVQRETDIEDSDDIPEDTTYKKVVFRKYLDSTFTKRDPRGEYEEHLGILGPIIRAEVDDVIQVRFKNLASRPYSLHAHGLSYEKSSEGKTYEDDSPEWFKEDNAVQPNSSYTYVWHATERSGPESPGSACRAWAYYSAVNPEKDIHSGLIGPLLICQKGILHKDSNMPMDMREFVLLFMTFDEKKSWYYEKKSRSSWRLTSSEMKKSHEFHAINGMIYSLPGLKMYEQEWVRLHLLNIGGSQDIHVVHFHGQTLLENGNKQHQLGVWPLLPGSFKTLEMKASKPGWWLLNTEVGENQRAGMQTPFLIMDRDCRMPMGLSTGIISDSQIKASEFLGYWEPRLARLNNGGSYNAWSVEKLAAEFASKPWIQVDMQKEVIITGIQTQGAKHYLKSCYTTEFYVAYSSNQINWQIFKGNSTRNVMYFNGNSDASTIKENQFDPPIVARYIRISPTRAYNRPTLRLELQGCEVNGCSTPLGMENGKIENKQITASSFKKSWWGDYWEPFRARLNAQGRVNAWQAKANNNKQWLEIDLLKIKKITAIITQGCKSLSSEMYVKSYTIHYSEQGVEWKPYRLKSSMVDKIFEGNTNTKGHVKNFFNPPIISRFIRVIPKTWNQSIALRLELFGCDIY

[5] = +Anticoagulant alone (0.1 U/mL unfractionated heparin, 2.7 μg/mL enoxaparin, 1 μg/mL argatroban or 0.2 μg/mL rivaroxaban)
[6] = +100 μM polyP, no anticoagulant, blood samples of the argatroban series
[7] = +100 μM polyP, no anticoagulant, blood samples of the enoxaparin series
[8] = +100 μM polyP, no anticoagulant, blood samples of the rivaroxaban series
[9] = +100 μM polyP, no anticoagulant, blood samples of the unfractionated heparin series
[10] = +Anticoagulant + polyP: 0.2 μg/mL rivaroxaban + 100 μM polyP
[11] = +Anticoagulant + polyP: 1 μg/mL argatroban + 100 μM polyP
[12] = +Anticoagulant + polyP: 2.7 μg/mL enoxaparin + 100 μM polyP
[13] = +Anticoagulant + polyP: 0.1 U/mL unfractionated heparin + 100 μM polyP

## CC1CNc2c(cccc2S(=O)(=O)N[C@@H](CCCNC(=N)N)C(=O)N2CC[C@@H](C)C[C@@H]2C(=O)O)C1 (some centres unmarked) [Argatroban, reference compound]
[1]; human, in vivo
  therapeutic plasma concentration: about 1 μg/ml
Fresh whole blood; [5]
  MCF: 49.4 mm
  α angle: 38.8 °

## Polyphosphate
fibrinogen
  effect on fibrin clot structure: thicker fibrin fibers that are more resistant to fibrinolysis
[2]; 5 patients with severe hemophilia A, polyP75 added in vitro
  effect on plasma clot time: decreased the plasma clot time
[2]; FVIII deficiency, polyP alone vs FVIII restored to normal plasma concentration
  shortening of plasma clot time compared with factor replacement: greater degree than did restoring the missing clotting factor
[2]; FVIII-deficient plasma, all rFVIIa concentrations evaluated
  procoagulant effect in combination with rFVIIa: additive
[2]; FVIII-deficient plasma, polyP alone
  rFVIIa concentration giving similar shortening of plasma clot time: ~15 nM
[2]; severe hemophilia A plasma in the presence of polyP
  clotting of patient plasma with polyP compared with pooled normal plasma: clotted more rapidly than did pooled normal plasma without polyP
[3]; 4 patients with severe hemophilia B, polyP75 added in vitro
  effect on plasma clot time: decreased the plasma clot time
[3]; FIX deficiency, polyP alone vs FIX restored to normal plasma concentration
  shortening of plasma clot time compared with factor replacement: greater degree than did restoring the missing clotting factor
[3]; FIX-deficient plasma, all rFVIIa concentrations evaluated
  procoagulant effect in combination with rFVIIa: additive
[3]; FIX-deficient plasma, polyP alone
  rFVIIa concentration giving similar shortening of plasma clot time: ~6 nM
[3]; severe hemophilia B plasma in the presence of polyP
  clotting of patient plasma with polyP compared with pooled normal plasma: clotted more rapidly than did pooled normal plasma without polyP
thrombin
  effect on ability of antithrombin to inactivate thrombin: neither enhanced nor blocked
  effect on ability of heparin to accelerate inactivation of thrombin by antithrombin: did not enhance or block
Pooled normal plasma; both types of heparin, decreased slope of the dose-response curve, 67 μM polyP75
  reversal of the effective dose of heparins: approximately 50%
Pooled normal plasma; plasma with low molecular weight heparin (enoxaparin), all concentrations evaluated (20-100 μg/mL), 67 μM polyP75
  shortening of clot time by polyP: approximately 50%
Pooled normal plasma; plasma with rivaroxaban, all concentrations tested (0.2-1 μg/mL), 67 μM polyP75
  shortening of clot time by polyP: approximately 80%
Pooled normal plasma; plasma with supratherapeutic argatroban (1-3 μg/ml) + polyP
  argatroban level giving equivalent prolongation of clot time: less than 0.5 μg/ml
Pooled normal plasma; plasma with unfractionated heparin, all concentrations evaluated (0.2-1 U/mL), 67 μM polyP75
  shortening of clot time by polyP: approximately 50%
Pooled normal plasma; unfractionated heparin, enoxaparin, argatroban, rivaroxaban, 67 μM polyP75
  effect on anticoagulant effect of drugs added in vitro to normal plasma: antagonized the anticoagulant effect of all four drugs
[4]
  effect on plasma clot time: shortened, but did not completely normalize
Fresh whole blood; [6]
  MCF: 62.2 mm
  α angle: 69.0 °
Fresh whole blood; [7]
  MCF: 64.8 mm
  α angle: 71.0 °
Fresh whole blood; [8]
  MCF: 64.0 mm
  α angle: 70.0 °
Fresh whole blood; [9]
  MCF: 63.0 mm
  α angle: 69.6 °
Fresh whole blood; [10]
  MCF: 63.6 mm
  α angle: 67.4 °
Fresh whole blood; [11]
  MCF: 59.4 mm
  α angle: 56.4 °
Fresh whole blood; [12]
  MCF: 59.8 mm
  α angle: 60.4 °
Fresh whole blood; [13]
  MCF: 52.4 mm
  α angle: 46.8 °
Fresh whole blood; blood containing argatroban
  effect of polyP on CT, in words: shortened but did not entirely normalize
Fresh whole blood; blood containing enoxaparin
  effect of polyP on thromboelastography parameters, in words: normalized all parameters
Fresh whole blood; blood containing rivaroxaban
  effect of polyP on thromboelastography curve, in words: complete reversal of anticoagulation
Fresh whole blood; blood containing unfractionated heparin
  effect of polyP on CT, in words: shortened, but did not completely normalize
Factor V
  effect on activation of factor V by thrombin or factor Xa: accelerate the activation of factor V

## O=C(NC[C@H]1CN(c2ccc(N3CCOCC3=O)cc2)C(=O)O1)c1ccc(Cl)s1 [Rivaroxaban, reference compound]
[1]; in a patient
  plasma half-life: 7 to 10 h
Fresh whole blood; [5]
  MCF: 54.8 mm
  α angle: 47.6 °
